This note sets out measurements from patent US5703118A, “Use of benzopyran derivatives for the treatment of pathologies associated with the NA^+ -independent CI-/HCO3 -exchanger” (Adir et Compagnie, priority 1995, dated 1997).

Like-named read-outs stand apart in the source and are kept apart here.

For assay [1], the system named is Na^+ -independent Cl^- /HCO3^- exchanger. As to the kind of experiment: Activity of the Na^+ -independent Cl^- /HCO3^- exchanger in ventricular cardiomyocytes isolated from rat heart (acetate method, carboxy-SNARF-1 intracellular pH). The format is cell-based. The procedure: Example A: MEASUREMENT OF THE ACTIVITY OF THE Na^+ -INDEPENDENT Cl^- /HCO3^- EXCHANGER IN VENTRICULAR CARDIOMYOCYTES ISOLATED FROM RAT HEART
The study is performed on ventricular cardiomyocytes isolated from rat heart by enzymatic dissociation. The intracellular pH of a single cell is measured by the fluorescent label carboxy-SNARF-1 whose fluorescence depends on its state of protonation (Buckler K. J. et al. Pflugers Archiv, 1990, 417: 234-239). The cells are "charged" beforehand with SNARF-1-AM (esterified and permeating form of the label) and the intracellular fluorescence of SNARF is monitored using an inverted microscope equipped with epifluorescence. The measurements are converted into pH using a calibration file.
The activity of the Na^+ -independent Cl^- /HCO3^- exchanger is studied after activation by induction of an alkaline charge of the cells by the acetate method (Roos A et al. Physiol. Rev., 1981, 61: 296-434). […]
The compounds according to the invention are used at concentrations of 10^-11 to 10^-5 M and their IC50 (50% inhibitory concentration) is calculated for each ion transporter. In parallel, the effects of the molecules on the intracellular intrinsic buffer power and the intracellular resting pH are determined.

For the next assay, the system named is isolated rat hearts. In words: Cardiovascular study: arrhythmias in isolated rat hearts (Langendorff infusion), ischaemia-reinfusion. The settings on record: for inhibition at 0.1 µM: Rattus norvegicus, n=6, preliminary. The procedure:
Example F: CARDIOVASCULAR STUDY
The compounds are tested at a concentration of 0.1 μM in a solution of DMSO in Krebs buffer (0.01% v/v) on arrhythmias. 6 isolated rat hearts were used for the test compound and 6 for the control. An infusion by the Langendorff method is performed (Rees S. A. and Curtis M.J.J. Card. Pharmacol. 1995, 26: 280-288).

Turning to `Cc1cc(C)c(NC(=O)C2(C)CCc3c(C)c(O)c(C)c(C)c3O2)cc1C` (centres unmarked) [Example 14, N-(2,4,5-trimethylphenyl)-(6-hydroxy-3,4-dihydro-2,5,7,8-tetramethyl-2H[1]-benzopyran-2-yl)carboxamide], in assay [1] (Na^+ /H^+ exchange and Na^+ /HCO3^- cotransport also studied (ammonium method)), the “selectivity of inhibition of the Na^+ -independent Cl^- /HCO3^- exchanger” value is “selective inhibitor”. Moreover, in assay [1] (activation by alkaline charge (acetate method), 10^-11 to 10^-5 M, read-out: IC50 (50% inhibitory concentration), Na^+ -independent Cl^- /HCO3^- exchanger), the IC50 is approximately 0.1 nM. The “activity on the cardiovascular system” value in the assay on isolated rat hearts (0.1 μM, isolated rat heart) was “possesses cardioprotective activity”. Further, the inhibition at 0.1 µM stood at 50% with isolated rat hearts (in comparison with control hearts, read-out: reduction of the incidence of ventricular fibrillation observed during the ischaemia) and 50% with isolated rat hearts (read-out: reduction of the incidence of ventricular fibrillation observed during reinfusion).
